Reference: patent US11672786B2, “Methods of treating diseases associated with repeat instability” (The Hospital for Sick Children, priority 2016, dated 2023)

Experiments:
single G-T mismatch = assay: in vitro repair assay by HeLa cell extracts, G-T mismatch; assay type: biochemical, human
Excerpt: Panel A of […] is a schematic of the in vitro repair assay. Starting DNAs and repair products released the repeat-containing fragment, which is resolved on PAGE and assessed on a molar level by Southern blotting and densitometry. Repair of different DNA substrates containing a long (CAG)20 slip-out (Panel B of FIG. 3) long (CTG)20 slip-out (Panel C of FIG. 3), a single CAG slip-out (Panel D of FIG. 3) or a single G-T mismatch (Panel E of FIG. 3), in the absence or in the presence of NA. Slipped-DNA substrates were prepared from hybrids of (CAG)50●(CTG)30, (CAG)30●(CTG)50 or of (CAG)50●(CTG)49. Repair of the G-T mismatch reconstitutes a HindIII restriction site, as shown schematically. Graphs show percentage repair efficiencies to repaired product relative to all repeat-containing fragments in the lane, values are normalized to the NA-free efficiency. […]
To determine how the binding of NA to slipped DNA structures affects repair, a series of circular slipped heteroduplex substrates was made with an excess of repeats with a nick located either 5′ or 3′ of the slip-out (FIG. 3). […] All these substrates were processed in […] by HeLa extracts and then were assessed for repair. Repair products were analyzed by Southern blotting, probed for the repeat-containing fragment, and compared with starting material, which permitted quantitative assessment of repair efficiency at a molar level. […]

[1] = tested on: HPRT1 exons 2 and 3, HD primary fibroblast cell line GM09197; assay: HPRT1 sequence analysis by SMRT-CCS sequencing (general mutagen test); assay type: cell-based, human
Excerpt: Towards assessing whether NA-treatment acted as a general mutagen to sequences other than CAG slip-outs, the high read accuracy and depth of single molecule, real time, circular consensus sequencing (SMRT-CCS) was harnessed. Single-molecule sequencing was done on the HPRT1 gene—widely used as a surrogate indicator of the global effect of induced genetic variation. Single-molecule sequencing can detect mutations at frequencies below 0.5% with no false positives. Panel A of FIG. 13 is a schematic of HPRT1 sequencing for mutation detection. Briefly, cells were grown under identical conditions differing only by the addition of NA (50 μM) or saline, DNAs were isolated, HPRT1 exons 2 and 3 PCR amplified and sequenced. Panel B of FIG. 13 are graphs showing the comparison of sequence variations between NA-treated and saline-treated samples. We chose to compare the single-molecule sequence reads of individual X chromosome-linked HPRT1 alleles (exons 2 and 3, 2,897 nucleotides) from the HD patient-derived cells that had been NA- or saline-treated. In this manner, each read would represent a single cell. Graphs show the distribution of sequence variants by relative mutation rate between three experimental replicates of NA-treated and saline-treated cells sequenced with PacBio single-molecule long reads.
DNAs were extracted from three independent NA treatments of the HD primary fibroblast cell line GM09197 and from three independent untreated control cells. HPRT1 exons 2 and 3 were amplified using the high fidelity Platinum Taq DNA Polymerase (Invitrogen, Cat #11304) and the primers shown in Table 1. Amplification products were analyzed using single molecule, real-time (SMRT) sequencing on the PacBio RSII instrument (see FIG. 13A).
Specifically, a ˜2.8 kb PCR product spanning exons two and three of HPRT1 was sequenced for three replicates of HD patient-derived cells in both NA- and saline-treated colonies on a Pacific Biosciences (PacBio) RSII with P6-C4v2 chemistry, 360 minute movies, and one SMRT cell per replicate/treatment combination. Individual molecules from the original cell colony were represented by single long reads from the corresponding SMRT cell. PacBio's SMRTbell construct allows a single molecule to be sequenced one or more times in a single long read based on the number of “passes” the sequencing polymerase makes around the SMRTbell insert. An average of 99,023 distinct reads were sequenced per SMRT cell. The resulting long reads contained an average of ˜7 passes through the insert sequence. The average median insert length per SMRT cell was 2,873 bp. […] Based on these filters, an average of 1,343 consensus sequences per replicate/treatment pair were produced with a range of up to 2,402 sequences. […] To estimate the mutation rate for each replicate/treatment combination, the number of times a specific variant occurred was calculated between high-quality PacBio consensus reads at a specific position in the human reference (GRCh38) divided by the total number of high-quality reads aligned across each position. For each replicate, the relative mutation rate was calculated between NA- and saline-treated cells as the mutation rate for NA-treated cells minus the rate for saline-treated cells and identified excess mutation rates based on an absolute relative rate >0.5%. […]

(CAG)10 hairpins = settings: cited from earlier work

Substance: naphthyridine-azaquinolone
- effect on G-T mismatch repair (single G-T mismatch): no effect
- distinct sites with extreme relative mutation rates, number ([1]; 50 μM NA, across 2,897 positions, control 84): 113
- distinct sites with extreme relative mutation rates, percent ([1]; 50 μM NA, control 2.9%): 3.9%
- variants with extreme mutation rates (absolute relative rate >0.5%), number ([1]; 50 μM NA, of the 15,277 variants across three replicates, saline 101): 149
- variants with extreme mutation rates, percent ([1]; 50 μM NA, saline 0.7%): 1.0%
- mutation rates NA- versus saline-treated ([1]; p=0.1083, two-sample Kolmogorov-Smirnov test): not significantly different
- melting temperature of (CAG)10 hairpins with NA ((CAG)10 hairpins; 50 μM NA, 47.1 (±0.7)° C. without NA): 78.8 (±0.1) ° C.
- increase of the melting temperature of (CAG)10 hairpins ((CAG)10 hairpins): > 30 °C
